Assay results from patent US9238656B2, “Imidazo[4,5-b]pyridine derivatives as ALK and JAK modulators for the treatment of proliferative disorders” (priority 2012, dated 2016).

Experiments:
[1] = 30 mg BID, kidney allograft recipients; cited from earlier work
[2] = target: baculovirus-expressed JAK2 kinase (Homo sapiens, UniProt O60674); assay: biochemical; conditions: 0.2 μM ATP; read-out: JAK2 Potency
How it was run: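 Time-resolved fluorescence kinase assay using 15 ng/mL baculovirus-expressed JAK2 on Neutravidin-captured biotinylated 15-mer peptide substrate, reaction 20 min at room temperature. IC50 from percent inhibition versus log concentration, sigmoidal variable-slope fit.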

[3] = target: baculovirus-expressed ALK (Homo sapiens, UniProt Q9UM73); assay: ALK kinase inhibition, TRF/ELISA; format: biochemical; conditions: read-out: ALK Potency
How it was run: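 Plates were coated with GST-PLC-γ substrate (10 μg/mL) and the reaction was started with 30 ng/mL ALK, running 15 min at 37° C. Phosphotyrosine was detected by time-resolved fluorescence with Eu-labeled PT66 antibody. IC50s came from variable-slope sigmoidal fits of percent inhibition versus log concentration.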

Chain of baculovirus-expressed JAK2 kinase (O60674 whole entry): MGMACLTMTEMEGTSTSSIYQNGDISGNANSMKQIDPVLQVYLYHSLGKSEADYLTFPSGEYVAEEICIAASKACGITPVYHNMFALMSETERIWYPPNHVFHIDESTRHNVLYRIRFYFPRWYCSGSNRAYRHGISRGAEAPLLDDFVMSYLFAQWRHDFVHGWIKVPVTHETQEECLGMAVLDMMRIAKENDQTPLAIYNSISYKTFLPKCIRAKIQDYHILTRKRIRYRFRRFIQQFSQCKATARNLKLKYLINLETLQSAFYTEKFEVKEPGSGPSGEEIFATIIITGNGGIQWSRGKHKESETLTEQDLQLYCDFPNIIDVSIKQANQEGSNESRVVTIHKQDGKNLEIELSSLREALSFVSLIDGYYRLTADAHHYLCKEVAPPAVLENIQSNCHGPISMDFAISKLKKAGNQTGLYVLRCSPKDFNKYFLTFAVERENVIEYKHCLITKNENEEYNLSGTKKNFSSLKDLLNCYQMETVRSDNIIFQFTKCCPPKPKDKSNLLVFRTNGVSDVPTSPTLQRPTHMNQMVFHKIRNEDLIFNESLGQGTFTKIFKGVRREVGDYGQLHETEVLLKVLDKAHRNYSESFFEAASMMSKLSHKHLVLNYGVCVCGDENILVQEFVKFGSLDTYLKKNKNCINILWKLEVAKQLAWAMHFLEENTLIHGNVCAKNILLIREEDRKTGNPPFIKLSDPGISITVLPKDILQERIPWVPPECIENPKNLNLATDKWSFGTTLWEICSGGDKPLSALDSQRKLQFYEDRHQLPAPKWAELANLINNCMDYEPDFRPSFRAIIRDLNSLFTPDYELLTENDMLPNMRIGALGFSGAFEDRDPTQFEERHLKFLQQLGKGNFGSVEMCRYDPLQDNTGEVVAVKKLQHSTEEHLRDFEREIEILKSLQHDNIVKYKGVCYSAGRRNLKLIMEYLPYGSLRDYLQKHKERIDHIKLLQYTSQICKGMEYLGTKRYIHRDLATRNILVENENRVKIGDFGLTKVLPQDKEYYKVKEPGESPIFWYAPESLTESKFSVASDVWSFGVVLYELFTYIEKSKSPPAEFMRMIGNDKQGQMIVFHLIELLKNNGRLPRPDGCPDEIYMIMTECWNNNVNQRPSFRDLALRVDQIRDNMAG
Chain of baculovirus-expressed ALK (Q9UM73 19-1620): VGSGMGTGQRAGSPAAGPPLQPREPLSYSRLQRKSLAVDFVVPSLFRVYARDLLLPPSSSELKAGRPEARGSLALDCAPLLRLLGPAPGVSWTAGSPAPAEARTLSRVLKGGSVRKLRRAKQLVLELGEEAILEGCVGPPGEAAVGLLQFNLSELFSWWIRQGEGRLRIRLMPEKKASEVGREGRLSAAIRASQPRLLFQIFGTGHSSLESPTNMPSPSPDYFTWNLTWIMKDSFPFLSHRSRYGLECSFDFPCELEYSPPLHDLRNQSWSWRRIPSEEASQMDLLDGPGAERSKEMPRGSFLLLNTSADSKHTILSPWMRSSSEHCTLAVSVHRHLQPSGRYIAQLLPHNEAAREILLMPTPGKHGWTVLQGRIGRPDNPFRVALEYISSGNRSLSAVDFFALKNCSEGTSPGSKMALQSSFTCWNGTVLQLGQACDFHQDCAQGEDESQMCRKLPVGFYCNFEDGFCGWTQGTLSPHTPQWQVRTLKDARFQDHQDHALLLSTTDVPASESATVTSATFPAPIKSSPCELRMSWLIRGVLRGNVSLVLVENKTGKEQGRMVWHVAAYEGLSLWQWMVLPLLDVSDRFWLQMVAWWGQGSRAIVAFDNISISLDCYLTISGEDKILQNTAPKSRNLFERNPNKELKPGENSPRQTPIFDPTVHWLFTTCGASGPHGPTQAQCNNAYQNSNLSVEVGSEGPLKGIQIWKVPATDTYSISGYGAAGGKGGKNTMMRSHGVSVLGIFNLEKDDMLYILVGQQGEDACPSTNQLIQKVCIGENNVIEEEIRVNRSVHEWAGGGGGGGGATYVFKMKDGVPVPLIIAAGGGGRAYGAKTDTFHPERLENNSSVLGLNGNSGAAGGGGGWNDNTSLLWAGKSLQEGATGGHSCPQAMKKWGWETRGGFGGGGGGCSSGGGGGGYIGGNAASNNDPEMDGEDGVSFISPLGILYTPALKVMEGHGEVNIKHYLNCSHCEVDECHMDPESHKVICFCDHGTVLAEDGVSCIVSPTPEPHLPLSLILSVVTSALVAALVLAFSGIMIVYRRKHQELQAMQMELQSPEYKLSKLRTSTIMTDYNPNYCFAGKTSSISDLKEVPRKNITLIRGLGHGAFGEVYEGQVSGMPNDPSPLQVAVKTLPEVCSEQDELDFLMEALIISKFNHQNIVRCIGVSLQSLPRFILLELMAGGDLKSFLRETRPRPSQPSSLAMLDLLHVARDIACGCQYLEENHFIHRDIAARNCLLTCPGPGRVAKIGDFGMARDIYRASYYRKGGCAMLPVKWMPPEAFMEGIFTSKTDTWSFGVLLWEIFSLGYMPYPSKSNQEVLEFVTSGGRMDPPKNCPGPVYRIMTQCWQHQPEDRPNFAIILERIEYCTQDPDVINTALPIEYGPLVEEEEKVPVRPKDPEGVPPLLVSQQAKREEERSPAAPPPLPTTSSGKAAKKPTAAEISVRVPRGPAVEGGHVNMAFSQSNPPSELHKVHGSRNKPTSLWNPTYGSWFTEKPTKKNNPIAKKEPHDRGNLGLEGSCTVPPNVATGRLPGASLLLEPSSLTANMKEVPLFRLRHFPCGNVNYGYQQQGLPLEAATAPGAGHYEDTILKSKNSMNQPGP

melting point [°C] | IC50 [2] [nM] | IC50 [3] [nM] | Compound | subjects developed polyoma-associated nephropathy [1] [%]
– | – | – | C[C@@H]1CCN(C(=O)CC#N)C[C@@H]1N(C)c1ncnc2[nH]ccc12 [CP-690,550] | 20
199 to 200 | 100 to 1000 | 1000 to 10000 | COc1ccc(-c2nc3c(N[C@H]4[C@@H](C(N)=O)[C@@H]5C=C[C@H]4C5)c(Cl)cnc3[nH]2)c(C2CCNCC2)c1 [Compound XXX, (1S,2S,3R,4R)-3-[6-Chloro-2-(4-methoxy-2-piperidin-4-yl-phenyl)-3H-imidazo[4,5-b]pyridine-7-ylamino]-bicyclo[2.2.1]hept-5-ene-2-carboxylic acid amide] | –
120 | 100 to 1000 | 1000 to 10000 | NC(=O)[C@@H]1[C@H](Nc2c(Br)cnc3[nH]c(-c4ccccc4-n4cccn4)nc23)[C@H]2C=C[C@@H]1C2 [Compound CIV, (1S,2S,3R,4R)-3-[6-Bromo-2-(2-pyrazol-1-yl-phenyl)-3H-imidazo[4,5-b]pyridin-7-ylamino]-bicyclo[2.2.1]hept-5-ene-2-carboxylic acid amide] | –
232 to 234 | < 100 | < 100 | NC(=O)[C@@H]1[C@H](Nc2c(Br)cnc3[nH]c(-c4cccc(N5CCOCC5)c4)nc23)[C@H]2C=C[C@@H]1C2 [Compound LXXXIII, (1S,2S,3R,4R)-3-[6-Bromo-2-(3-morpholin-4-yl-phenyl)-3H-imidazo[4,5-b]pyridin-7-ylamino]-bicyclo[2.2.1]hept-5-ene-2-carboxylic acid amide] | –
